From patent publication US5840684A, “Glycopeptide antibiotic derivatives” (Eli Lilly and Company, priority 1995, dated 1998)
Values after ≈ are worked out from the molar mass of the structure shown. Values joined by “and” are separate entries in the source; they are usually repeats but may differ in a detail not shown here. Equal values may be shown once.

How the values were obtained:
Streptococcus pneumoniae = test: mouse protection, experimentally-induced infection; assay type: in vivo; details: mice infected with Streptococcus pneumoniae, two doses
[1] = tested on: vancomycin-susceptible enterococci; test: broth micro-dilution, mean geometric MIC; assay type: cell-based, Enterococcus faecium and Enterococcus faecalis; details: enterococci, 24-hour incubation
Streptococcus pyogenes = test: mouse protection, experimentally-induced infection; assay type: in vivo; details: mice infected with Streptococcus pyogenes, two doses
[2] = tested on: vancomycin-resistant enterococci; test: broth micro-dilution, mean geometric MIC; assay type: cell-based, Enterococcus faecium and Enterococcus faecalis; details: enterococci, 24-hour incubation
[3] = tested on: Staphylococcus aureus X778; test: broth micro-dilution MIC; assay type: cell-based
Experimental: (§1) The MIC's were determined using a standard broth micro-dilution assay.

[4] = tested on: Entercoccus faecium 180-1; test: broth micro-dilution MIC; assay type: cell-based
Experimental: as §1

[5] = tested on: Staphylococcus aureus SA1199; test: broth micro-dilution MIC; assay type: cell-based
Experimental: as §1

[6] = tested on: Staphylococcus aureus SA1199A; test: broth micro-dilution MIC; assay type: cell-based
Experimental: as §1

Entercoccus faecium 276 = test: broth micro-dilution MIC; assay type: cell-based
Experimental: as §1

[7] = tested on: Staphylococcus aureus 447; test: broth micro-dilution MIC; assay type: cell-based
Experimental: as §1

[8] = tested on: Staphylococcus haemolyticus 415; test: broth micro-dilution MIC; assay type: cell-based
Experimental: (§2) The formula I compounds have in vitro and in vivo activity against Gram-positive pathogenic bacteria. The MIC's were determined using a standard broth micro-dilution assay.

[9] = tested on: Staphylococcus epidermidis 270; test: broth micro-dilution MIC; assay type: cell-based
Experimental: as §2

[10] = tested on: Enterococcus gallinarum 245; test: broth micro-dilution MIC; assay type: cell-based; details: Enterococcus gallinarum 245
Experimental: as §2

[11] = tested on: Streptococcus pneumoniae P1; test: broth micro-dilution MIC; assay type: cell-based
Experimental: as §2

Entercoccus faecium 2041 = test: broth micro-dilution MIC; assay type: cell-based; details: Entercoccus faecium 2041
Experimental: as §2

[12] = tested on: Staphylococcus aureus S13E; assay type: cell-based
Experimental: as §1

[13] = tested on: Streptococcus pyogenes C203; test: broth micro-dilution MIC; assay type: cell-based
Experimental: as §1

[14] = tested on: Staphylococcus aureus 446; test: broth micro-dilution MIC; assay type: cell-based
Experimental: as §1

[15] = tested on: Staphylococcus aureus X400; test: broth micro-dilution MIC; assay type: cell-based
Experimental: as §1

[16] = tested on: Staphylococcus haemolyticus 105; test: broth micro-dilution MIC; assay type: cell-based
Experimental: as §2

Entercoccus faecium 180 = test: broth micro-dilution MIC; assay type: cell-based; details: Entercoccus faecium 180
Experimental: as §2

[17] = tested on: Staphylococcus aureus SA1199B; assay type: cell-based
Experimental: as §1

[18] = tested on: Staphylococcus aureus 489; test: broth micro-dilution MIC; assay type: cell-based
Experimental: as §1

| SMILES | ED50 (Streptococcus pneumoniae) [mg/kg/2] | mean geometric MIC, Vancomycin Sensitive Strains [1] [µg/mL] | ED50 (Streptococcus pyogenes) [mg/kg/2] | mean geometric MIC, Vancomycin Resistant Strains [2] [µg/mL] | MIC [3] [µg/mL] | MIC [4] [µg/mL] | MIC [5] [µg/mL] | MIC [6] | MIC [8] | MIC [9] | MIC [10] [µg/mL] | MIC [11] [µg/mL] | MIC (Entercoccus faecium 2041) [µg/mL] | MIC [12] [µg/mL] | MIC [13] [µg/mL] | MIC [14] [µg/mL] | MIC [15] [µg/mL] | MIC [16] [µg/mL] | MIC (Entercoccus faecium 180) [µg/mL] | MIC [17] | further results |
| --- | --- | --- | --- | --- | --- | --- | --- | --- | --- | --- | --- | --- | --- | --- | --- | --- | --- | --- | --- | --- | --- |
| CNC(CC(C)C)C(=O)NC1C(=O)NC(CC(N)=O)C(=O)NC2C(=O)NC3C(=O)NC(C(=O)NC(C(=O)O)c4cc(O)cc(O)c4-c4cc3ccc4O)C(OC3CC(C)(N)C(O)C(C)O3)c3ccc(c(Cl)c3)Oc3cc2cc(c3OC2OC(CO)C(O)C(O)C2OC2CC(C)(NCc3ccc(C(c4ccccc4)c4ccccc4)cc3)C(O)C(C)O2)Oc2ccc(cc2Cl)C1O (stereo not drawn) [Compound 46] | 0.156 | 0.50 | 0.378 | 0.71 | – | – | – | – | – | – | – | – | – | – | – | – | – | – | – | – | – |
| CNC(CC(C)C)C(=O)NC1C(=O)NC(CC(N)=O)C(=O)NC2C(=O)NC3C(=O)NC(C(=O)NC(C(=O)O)c4cc(O)cc(O)c4-c4cc3ccc4O)C(OC3CC(C)(N)C(O)C(C)O3)c3ccc(c(Cl)c3)Oc3cc2cc(c3OC2OC(CO)C(O)C(O)C2OC2CC(C)(NCc3ccc(-c4ccc([N+](=O)[O-])cc4)cc3)C(O)C(C)O2)Oc2ccc(cc2Cl)C1O (stereo not drawn) [Compound 64] | < 0.031 | 0.077 | 0.044 | 0.71 | 2 (≈ 1.11 µM) | ≤ 0.06 | 1 (≈ 0.554 µM) | ≤ 0.06 µg/mL | 2 µg/mL (≈ 1.11 µM) | 0.5 µg/mL (≈ 0.277 µM) | 2 (≈ 1.11 µM) | ≤ 0.06 | ≤ 0.06 | 2 (≈ 1.11 µM) | – | – | – | – | – | – | MIC (Entercoccus faecium 276): 0.5 µg/mL (≈ 0.277 µM); MIC [7]: 0.5 µg/mL (≈ 0.277 µM) |
| CN[C@H](CC(C)C)C(=O)N[C@H]1C(=O)N[C@@H](CC(N)=O)C(=O)N[C@H]2C(=O)N[C@H]3C(=O)N[C@H](C(=O)N[C@H](C(=O)O)c4cc(O)cc(O)c4-c4cc3ccc4O)[C@H](O[C@H]3C[C@](C)(N)[C@@H](O)[C@H](C)O3)c3ccc(c(Cl)c3)Oc3cc2cc(c3O[C@@H]2O[C@H](CO)[C@@H](O)[C@H](O)[C@H]2O[C@H]2C[C@](C)(NCc3ccc(OCc4ccc(Cl)cc4)cc3)[C@@H](O)[C@H](C)O2)Oc2ccc(cc2Cl)[C@H]1O [Compound 93] | 0.012 | 0.042 | 0.074 | 0.42 | 1 (≈ 0.549 µM) | ≤ 0.06 | 2 (≈ 1.1 µM) | ≤ 0.06 µg/mL | 1 µg/mL (≈ 0.549 µM) | 1 µg/mL (≈ 0.549 µM) | 1 (≈ 0.549 µM) | ≤ 0.06 | ≤ 0.06 | 1 (≈ 0.549 µM) | ≤ 0.06 | 2 (≈ 1.1 µM) | ≤ 0.06 | 1 (≈ 0.549 µM) | ≤ 0.06 | 1 µg/mL (≈ 0.549 µM) | – |
| CNC(CC(C)C)C(=O)NC1C(=O)NC(CC(N)=O)C(=O)NC2C(=O)NC3C(=O)NC(C(=O)NC(C(=O)O)c4cc(O)cc(O)c4-c4cc3ccc4O)C(OC3CC(C)(N)C(O)C(C)O3)c3ccc(c(Cl)c3)Oc3cc2cc(c3OC2OC(CO)C(O)C(O)C2OC2CC(C)(NCc3ccc(CCc4ccccc4)cc3)C(O)C(C)O2)Oc2ccc(cc2Cl)C1O (stereo not drawn) [Compound 100] | 0.046 | 0.042 | 0.062 | 0.71 | – | ≤ 0.06 | – | – | 2 µg/mL and 4 µg/mL | 0.5 µg/mL and 0.25 µg/mL | 2 (≈ 1.12 µM) | ≤ 0.06 | ≤ 0.06 | – | ≤ 0.06 | 1 (≈ 0.56 µM) | – | 1 (≈ 0.56 µM) | 0.25 (≈ 0.14 µM) | 0.5 µg/mL (≈ 0.28 µM) | – |
| CNC(CC(C)C)C(=O)NC1C(=O)NC(CC(N)=O)C(=O)NC2C(=O)NC3C(=O)NC(C(=O)NC(C(=O)O)c4cc(O)cc(O)c4-c4cc3ccc4O)C(OC3CC(C)(N)C(O)C(C)O3)c3ccc(c(Cl)c3)Oc3cc2cc(c3OC2OC(CO)C(O)C(O)C2OC2CC(C)(NCc3ccc(OCc4ccc([N+](=O)[O-])cc4)cc3)C(O)C(C)O2)Oc2ccc(cc2Cl)C1O (stereo not drawn) [Compound 131] | 0.077 | 0.028 | < 0.031 | 0.84 | 0.5 (≈ 0.273 µM) | ≤ 0.06 | – | ≤ 0.06 µg/mL | 2 µg/mL (≈ 1.09 µM) | 1 µg/mL (≈ 0.545 µM) | 2 (≈ 1.09 µM) | ≤ 0.06 | ≤ 0.06 | 1 (≈ 0.545 µM) | ≤ 0.06 | 2 (≈ 1.09 µM) | 1 (≈ 0.545 µM) | 1 (≈ 0.545 µM) | ≤ 0.06 | 1 µg/mL (≈ 0.545 µM) | MIC [18]: 1 µg/mL (≈ 0.545 µM); MIC [7]: 1 µg/mL (≈ 0.545 µM) |
| CNC(CC(C)C)C(=O)NC1C(=O)NC(CC(N)=O)C(=O)NC2C(=O)NC3C(=O)NC(C(=O)NC(C(=O)O)c4cc(O)cc(O)c4-c4cc3ccc4O)C(OC3CC(C)(N)C(O)C(C)O3)c3ccc(c(Cl)c3)Oc3cc2cc(c3OC2OC(CO)C(O)C(O)C2OC2CC(C)(NCc3ccc(-c4ccc(F)cc4)cc3)C(O)C(C)O2)Oc2ccc(cc2Cl)C1O (stereo not drawn) [Compound 211] | 0.041 | 0.024 | < 0.031 | 0.35 | 1 (≈ 0.563 µM) | ≤ 0.06 | 0.5 (≈ 0.281 µM) | – | 0.5 µg/mL (≈ 0.281 µM) | 0.5 µg/mL (≈ 0.281 µM) | ≤ 0.06 | ≤ 0.06 | ≤ 0.06 | 0.5 (≈ 0.281 µM) | ≤ 0.06 | 1 (≈ 0.563 µM) | 0.5 (≈ 0.281 µM) | 0.5 (≈ 0.281 µM) | ≤ 0.06 | 1 µg/mL (≈ 0.563 µM) | MIC (Entercoccus faecium 276): ≤ 0.06 µg/mL; MIC [7]: 0.5 µg/mL (≈ 0.281 µM) |
| CN[C@H](CC(C)C)C(=O)N[C@H]1C(=O)N[C@@H](CC(N)=O)C(=O)N[C@H]2C(=O)N[C@H]3C(=O)N[C@H](C(=O)N[C@H](C(=O)O)c4cc(O)cc(O)c4-c4cc3ccc4O)[C@H](O[C@H]3C[C@](C)(N)[C@@H](O)[C@H](C)O3)c3ccc(cc3)Oc3cc2cc(c3O[C@@H]2O[C@H](CO)[C@@H](O)[C@H](O)[C@H]2O[C@H]2C[C@](C)(N)[C@@H](O)[C@H](C)O2)Oc2ccc(cc2Cl)[C@H]1O [Compound A82846A, A82846A, reference compound] | 0.39 | 1.7 | 0.084 | – | 0.125 (≈ 0.0802 µM) | 0.125 (≈ 0.0802 µM) | 0.125 (≈ 0.0802 µM) | ≤ .06 µg/mL | 1 µg/mL (≈ 0.642 µM) | – | 0.125 (≈ 0.0802 µM) | – | 0.125 (≈ 0.0802 µM) | 0.125 (≈ 0.0802 µM) | – | – | 0.125 (≈ 0.0802 µM) | 0.5 (≈ 0.321 µM) | 16 (≈ 10.3 µM) | ≤ .06 µg/mL | MIC [18]: 0.5 µg/mL (≈ 0.321 µM); MIC (Entercoccus faecium 276): 0.125 µg/mL (≈ 0.0802 µM) |
